Assay results reported in publication PMC12070378 (Microbial Biotechnology, 2025).

Target: T1, Sortase A (SrtA) (Staphylococcus aureus, UniProt Q2FV99)
T1 sequence (Q2FV99 60-206): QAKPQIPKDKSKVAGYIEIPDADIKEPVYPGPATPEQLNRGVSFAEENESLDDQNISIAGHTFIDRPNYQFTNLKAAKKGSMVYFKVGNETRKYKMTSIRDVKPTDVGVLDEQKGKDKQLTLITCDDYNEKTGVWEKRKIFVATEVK
Assay: FRET cleavage assay of Abz-LPATG-Dap
Type: biochemical

Work on CC(=O)/C=C/c1ccc(O)c(O)c1 [OSC, osmundacetone] yielded an IC50 of 7.24 µM.
